What follows are compounds tested against T1, ATM (Homo sapiens, UniProt Q13315) (assay: ATM inhibition test (phosphorylation of Chk2 generated by ionizing radiation, AlphaScreen SureFire)). Details: phosphorylated Chk2 in NCI-H460 cells, ionizing radiation 8Gy, 1 hour after test compound treatment; read-out: ATM inhibitory activity.
T1 construct: detecting phosphorylation of Chk2 in a human non-small cell lung cancer cell line NCI-H460 (ATCC company); host or cells: NCI-H460 human non-small cell lung cancer cells
T1 sequence (Q13315 whole entry): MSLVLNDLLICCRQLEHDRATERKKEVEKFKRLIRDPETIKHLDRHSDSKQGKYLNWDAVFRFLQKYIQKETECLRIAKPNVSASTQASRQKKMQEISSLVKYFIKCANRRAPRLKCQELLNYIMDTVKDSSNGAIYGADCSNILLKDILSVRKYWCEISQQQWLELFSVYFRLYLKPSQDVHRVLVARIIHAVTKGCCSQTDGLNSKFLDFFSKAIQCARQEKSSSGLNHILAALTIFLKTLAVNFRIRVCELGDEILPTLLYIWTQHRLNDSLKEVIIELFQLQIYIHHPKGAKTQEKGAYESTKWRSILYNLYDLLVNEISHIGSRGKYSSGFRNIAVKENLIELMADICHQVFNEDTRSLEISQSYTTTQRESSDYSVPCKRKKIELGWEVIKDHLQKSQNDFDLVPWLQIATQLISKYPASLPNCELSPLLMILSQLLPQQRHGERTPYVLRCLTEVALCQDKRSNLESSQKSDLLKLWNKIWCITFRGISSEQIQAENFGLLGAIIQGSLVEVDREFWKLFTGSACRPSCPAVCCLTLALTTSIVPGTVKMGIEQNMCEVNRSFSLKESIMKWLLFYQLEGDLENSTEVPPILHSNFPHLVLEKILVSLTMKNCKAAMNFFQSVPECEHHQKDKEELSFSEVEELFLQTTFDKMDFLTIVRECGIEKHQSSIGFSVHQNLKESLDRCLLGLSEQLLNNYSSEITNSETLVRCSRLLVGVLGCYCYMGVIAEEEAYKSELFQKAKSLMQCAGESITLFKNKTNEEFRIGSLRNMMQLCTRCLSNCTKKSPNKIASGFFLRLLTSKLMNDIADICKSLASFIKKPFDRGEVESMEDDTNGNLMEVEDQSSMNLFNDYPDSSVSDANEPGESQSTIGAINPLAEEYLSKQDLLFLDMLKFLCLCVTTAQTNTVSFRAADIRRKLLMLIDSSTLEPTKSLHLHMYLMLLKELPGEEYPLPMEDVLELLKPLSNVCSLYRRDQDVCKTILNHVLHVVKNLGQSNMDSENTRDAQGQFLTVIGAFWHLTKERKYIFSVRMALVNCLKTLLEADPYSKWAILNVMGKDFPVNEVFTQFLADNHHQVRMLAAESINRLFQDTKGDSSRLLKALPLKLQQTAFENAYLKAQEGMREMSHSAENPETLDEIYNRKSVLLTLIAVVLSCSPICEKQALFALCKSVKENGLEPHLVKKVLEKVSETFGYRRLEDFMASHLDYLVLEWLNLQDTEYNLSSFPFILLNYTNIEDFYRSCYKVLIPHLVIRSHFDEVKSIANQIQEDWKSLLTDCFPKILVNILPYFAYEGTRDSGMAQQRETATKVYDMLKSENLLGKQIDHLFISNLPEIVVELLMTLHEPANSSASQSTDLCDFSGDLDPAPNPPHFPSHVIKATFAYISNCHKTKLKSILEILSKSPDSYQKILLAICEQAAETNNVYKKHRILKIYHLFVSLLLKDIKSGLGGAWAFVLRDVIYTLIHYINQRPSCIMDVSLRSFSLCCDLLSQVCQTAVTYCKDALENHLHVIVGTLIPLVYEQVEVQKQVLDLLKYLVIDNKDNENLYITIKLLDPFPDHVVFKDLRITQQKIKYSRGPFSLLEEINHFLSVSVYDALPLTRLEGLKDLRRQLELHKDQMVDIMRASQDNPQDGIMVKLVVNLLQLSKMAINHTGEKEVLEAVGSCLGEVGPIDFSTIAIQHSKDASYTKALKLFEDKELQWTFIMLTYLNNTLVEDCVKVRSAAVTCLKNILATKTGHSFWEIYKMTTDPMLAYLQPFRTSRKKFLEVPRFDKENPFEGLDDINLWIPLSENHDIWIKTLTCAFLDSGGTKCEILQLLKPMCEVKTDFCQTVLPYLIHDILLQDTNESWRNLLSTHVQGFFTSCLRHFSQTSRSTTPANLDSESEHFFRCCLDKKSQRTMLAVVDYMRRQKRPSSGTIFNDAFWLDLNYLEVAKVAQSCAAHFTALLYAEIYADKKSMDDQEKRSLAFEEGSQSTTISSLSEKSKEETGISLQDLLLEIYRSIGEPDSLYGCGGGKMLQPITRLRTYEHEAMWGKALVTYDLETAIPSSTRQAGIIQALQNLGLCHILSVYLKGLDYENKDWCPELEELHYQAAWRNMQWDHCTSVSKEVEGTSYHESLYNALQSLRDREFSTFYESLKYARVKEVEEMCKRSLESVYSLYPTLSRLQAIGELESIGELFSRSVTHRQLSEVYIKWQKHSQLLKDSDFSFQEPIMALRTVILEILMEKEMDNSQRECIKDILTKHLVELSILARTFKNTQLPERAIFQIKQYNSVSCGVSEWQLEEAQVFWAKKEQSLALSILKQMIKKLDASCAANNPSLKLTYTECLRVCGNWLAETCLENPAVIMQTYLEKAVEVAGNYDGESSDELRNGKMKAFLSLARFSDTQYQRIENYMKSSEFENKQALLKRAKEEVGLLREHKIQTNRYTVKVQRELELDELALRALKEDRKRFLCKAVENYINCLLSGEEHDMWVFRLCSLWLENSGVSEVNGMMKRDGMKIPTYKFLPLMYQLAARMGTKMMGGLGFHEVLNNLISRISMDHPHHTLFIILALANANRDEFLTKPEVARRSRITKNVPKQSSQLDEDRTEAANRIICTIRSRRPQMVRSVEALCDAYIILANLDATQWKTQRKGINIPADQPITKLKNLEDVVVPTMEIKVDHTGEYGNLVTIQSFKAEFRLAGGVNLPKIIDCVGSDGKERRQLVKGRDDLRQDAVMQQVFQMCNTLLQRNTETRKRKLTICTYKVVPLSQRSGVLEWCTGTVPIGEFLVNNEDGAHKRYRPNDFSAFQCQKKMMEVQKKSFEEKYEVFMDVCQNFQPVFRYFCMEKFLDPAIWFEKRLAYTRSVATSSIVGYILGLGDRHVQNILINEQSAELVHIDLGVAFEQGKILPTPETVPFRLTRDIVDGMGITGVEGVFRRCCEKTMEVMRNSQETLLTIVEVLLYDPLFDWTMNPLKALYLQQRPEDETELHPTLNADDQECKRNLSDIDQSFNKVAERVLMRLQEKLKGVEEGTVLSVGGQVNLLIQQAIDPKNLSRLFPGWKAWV
Format: cell-based
How it was run: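 Phosphorylated Chk2 read by AlphaScreen SureFire in human non-small cell lung cancer NCI-H460 cells, 1 hour after 8Gy ionizing radiation at 37° C. Compound added 1 hour before irradiation. Percent inhibition normalised between irradiated and non-irradiated drug-untreated signals.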

IC50 [nM]	Structure (SMILES)
< 100	Cc1ccc(C(Nc2ccc3c(c2)Cc2cccc(-c4cc(N5CCOCC5)cc(=O)[nH]4)c2O3)[C@H]2CN(C)CCO2)nc1 (stereo partly drawn) [Example 2-67, 6-(7-((((R)-4-methylmorpholin-2-yl)(5-methylpyridin-2-yl)methyl)amino)-9H-xanthen-4-yl)-4-morpholinopyridin-2(1H)-one]
500 to 2000	Nc1ccc2c(c1)Cc1cccc(-c3cc(N4CCOCC4)cc(=O)[nH]3)c1S2 [Example 3-1, 6-(7-amino-9H-thioxanthen-4-yl)-4-morpholinopyridin-2(1H)-one]
500 to 2000	O=c1cc(N2CCOCC2)cc(-c2cccc3c2Sc2ccc(NCc4ccno4)cc2C3)[nH]1 [Example 3-6, 6-(7-((isoxazol-5-ylmethyl)amino)-9H-thioxanthen-4-yl)-4-morpholinopyridin-2(1H)-one]
500 to 2000	CNc1ccc2c(c1)Cc1cccc(-c3cc(N4CCOCC4)cc(=O)[nH]3)c1S2 [Example 3-10, 6-(7-(methylamino)-9H-thioxanthen-4-yl)-4-morpholinopyridin-2(1H)-one]

Further lines, the compound ahead of its results:

Structure (SMILES)	IC50 [nM]
O=c1cc(N2CCOCC2)cc(-c2cccc3c2Sc2ccc(NCCN4CCOCC4)cc2C3)[nH]1 [Example 3-4-1, 4-Morpholino-6-(7-((2-morpholinoethyl)amino)-9H-thioxanthen-4-yl)pyridin-2(1H)-one]	500 to 2000
CN1CCN(CCNc2ccc3c(c2)Cc2cccc(-c4cc(N5CCOCC5)cc(=O)[nH]4)c2S3)CC1 [Example 3-4-3, 6-(7-((2-(4-Methylpiperazin-1-yl)ethyl)amino)-9H-thioxanthen-4-yl)-4-morpholino pyridin-2 (1H)-one]	500 to 2000
CCN(CC)CCNc1ccc2c(c1)Cc1cccc(-c3cc(N4CCOCC4)cc(=O)[nH]3)c1S2 [Example 3-4-4, 6-(7-((2-(Diethylamino)ethyl)amino)-9H-thioxanthen-4-yl)-4-morpholino pyridin-2(1H)-one]	500 to 2000
O=c1cc(N2CCOCC2)cc(-c2cccc3c2Sc2ccc(NCc4cccnc4)cc2C3)[nH]1 [Example 3-8-1, 4-Morpholino-6-(7-((pyridin-3-ylmethyl)amino)-9H-thioxanthen-4-yl)pyridin-2(1H)-one]	100 to 500
O=c1cc(N2CCOCC2)cc(-c2cccc3c2Sc2ccc(NCc4ccncc4)cc2C3)[nH]1 [Example 3-8-2, 4-Morpholino-6-(7-((pyridin-4-ylmethyl)amino)-9H-thioxanthen-4-yl)pyridin-2(1H)-one]	500 to 2000
O=c1cc(N2CCOCC2)cc(-c2cccc3c2Sc2ccc(NCc4cnccn4)cc2C3)[nH]1 [Example 3-8-5, 4-Morpholino-6-(7-((pyrazin-2-ylmethyl)amino)-9H-thioxanthen-4-yl)pyridin-2 (1H)-one]	500 to 2000
O=c1cc(N2CCOCC2)cc(-c2cccc3c2Sc2ccc(NCc4ncccn4)cc2C3)[nH]1 [Example 3-8-6, 4-Morpholino-6-(7-((pyrimidin-2-ylmethyl)amino)-9H-thioxanthen-4-yl) pyridin-2(1H)-one]	100 to 500
COc1ncccc1CNc1ccc2c(c1)Cc1cccc(-c3cc(N4CCOCC4)cc(=O)[nH]3)c1S2 [Example 3-8-8, 6-(7-(((2-Methoxypyridin-3-yl)methyl)amino)-9H-thioxanthen-4-yl)-4-morpholino pyridin-2 (1H)-one]	500 to 2000
COc1cncc(CNc2ccc3c(c2)Cc2cccc(-c4cc(N5CCOCC5)cc(=O)[nH]4)c2S3)c1 [Example 3-8-9, 6-(7-(((5-Methoxypyridin-3-yl)methyl)amino)-9H-thioxanthen-4-yl)-4-morpholino pyridin-2 (1H)-one]	100 to 500
O=c1cc(N2CCOCC2)cc(-c2cccc3c2Sc2ccc(NCc4cccnn4)cc2C3)[nH]1 [Example 3-8-12]	500 to 2000
CN1CCC(Nc2ccc3c(c2)Cc2cccc(-c4cc(N5CCOCC5)cc(=O)[nH]4)c2S3)CC1 [Example 3-8-13, 6-(7-((1-Methylpiperidin-4-yl)amino)-9H-thioxanthen-4-yl)-4-morpholino pyridin-2 (1H)-one]	100 to 500
